Counter-ions that a name gives are not always drawn.
Tested on: Pseudomonas aeruginosa
Assay: MIC determination via the microdilution method
Format: cell-based
Conditions: read-out: minimum inhibitory concentration (MIC)
Excerpt: Ciprofloxacin hydrochloride and gatifloxacin hydrochloride were supplied by Junda Pharmaceutical Co. Ltd (of Guangzhou of China). The aqueous solution of ciprofloxacin hydrochloride and gatifloxacin hydrochloride (at a weight ratio of 1:2.5) was obtained by dissolving both drugs together in water. The weight ratio of the individual quinolone in the solution (as well as in the resultant spray-dried particle) was based on the quinolone's minimum inhibitory concentration (MIC). The MIC was experimentally determined and a ratio of the quinolones was obtained as a guideline in developing the final workable proportion. The quinolones' MIC values were important as they provided preliminary guidance on the required therapeutic dose of each quinolone in the binary (SD-CIP/GAT) powder formulation (i.e. combination ratios). The MICs of the various quinolones for the bacteria Pseudomonas aeruginosa different bacteria were determined via the microdilution method and used to determine the desired binary drug proportions. For the bacteria Pseudomonas aeruginosa, since MICCIP:MICGAT is 1:2 (actual values are 0.25 μg/ml:0.5 μg/ml), the binary formulation was composed of CIP:GAT in the ratio of 1:2. […]

Structure (SMILES): O=C(O)c1cn(C2CC2)c2cc(N3CCNCC3)c(F)cc2c1=O [CIP, ciprofloxacin hydrochloride]
- MIC: 0.25 µg/mL

Structure (SMILES): COc1c(N2CCNC(C)C2)c(F)cc2c(=O)c(C(=O)O)cn(C3CC3)c12 (centres unmarked) [GAT, gatifloxacin hydrochloride]
- MIC: 0.5 µg/mL

From patent US9707228B2, “Dry powder formulation” (Agency for Science, Technology and Research, priority 2012, dated 2017)
